The values below come from DBAASP.

Test systems include Bacillus megaterium Bm11; Escherichia coli D21; Escherichia coli ML-35; Escherichia coli HB101.
Holding throughout (experiment): ≥ marks a high value that may be exact or a test limit, other limits are often not marked, values filed in µg/mL are converted to µM
For assay [1], the system named is Micrococcus luteus NBRC 12708.
Assay [2] relates to Escherichia coli NBRC 14237.
Assay [3] relates to Staphylococcus aureus NBRC 12732.
Assay [4] has as its system Pseudomonas aeruginosa NBRC 12582.
In assay [5] the test system is Bacillus subtilis IFO 3134.
Assay [6] concerns Pseudomonas aeruginosa IFO 12582.
Assay [7] deals with Escherichia coli IFO 12734.
The test system of assay [8] is Staphylococcus aureus IFO 12732.
The subject of assay [9] is Bacillus subtilis ATCC 6051.
Assay [10] has as its system Micrococcus luteus ATCC 9341.
The subject of assay [11] is Acinetobacter calcoaceticus Ac11.
Assay [12] has as its system Pseudomonas aeruginosa ATCC 27853.
For assay [13], the system named is Salmonella enterica subsp. enterica serovar Typhimurium LT2.
In assay [14] the test system is Salmonella typhimurium KCTC 1926.
For assay [15], the system named is Trichosporon beigelii KCTC 7707.
Assay [16] has as its system Saccharomyces cerevisiae KCTC 7296.
The test system of assay [17] is Staphylococcus epidermidis KCTC 3096.
Assay [18] relates to Candida albicans TIMM 1768.
Assay [19] has as its system Bacillus subtilis KCTC 1918.
Assay [20] relates to Pseudomonas aeruginosa KCTC 1637.
For assay [21], the system named is Staphylococcus aureus ATCC 25923.
Assay [22] has as its system Escherichia coli ATCC 25922.
The subject of assay [23] is Salmonella enterica subsp. enterica serovar Typhimurium ATCC 14028.
Assay [24] has as its system Serratia marcescens ATCC 8100.
Assay [25] relates to Corynebacterium glutamicum ATCC 13032.
For assay [26], the system named is Staphylococcus aureus ATCC 9144.

Values after ≈ are worked out from the molar mass of the structure shown.

Take `CC[C@H](C)[C@H](NC(=O)CNC(=O)[C@H](C)NC(=O)[C@H](CC(C)C)NC(=O)[C@H](CC(C)C)NC(=O)[C@H](CCCN=C(N)N)NC(=O)[C@@H]1CCCN1C(=O)[C@H](C)NC(=O)[C@H](CC(C)C)NC(=O)[C@H](CCCCN)NC(=O)[C@H](CC(C)C)NC(=O)[C@H](CC(C)C)NC(=O)[C@H](C)N)C(=O)N[C@@H](Cc1ccccc1)C(N)=O` [ALLKLAPRLLAGIF]: the MIC was at least 50 µM in assay [1], 12.5 µM (≈ 18.7 µg/mL) in assay [2], 12.5 µM (≈ 18.7 µg/mL) in assay [3] and at least 50 µM in assay [4].

In the case of `CC[C@H](C)[C@H](NC(=O)[C@H](C)NC(=O)[C@@H]1CCCN1C(=O)[C@@H](NC(=O)[C@@H](NC(=O)[C@H](Cc1cnc[nH]1)NC(=O)[C@H](C)NC(=O)[C@H](C)NC(=O)[C@@H](NC(=O)[C@H](CCCCN)NC(=O)[C@H](C)NC(=O)[C@H](CC(C)C)NC(=O)[C@@H](NC(=O)CNC(=O)[C@H](Cc1ccccc1)NC(=O)[C@H](CC(C)C)NC(=O)CN)C(C)C)C(C)C)C(C)C)C(C)C)C(=O)N[C@@H](C)C(=O)N[C@@H](CCC(=O)O)C(N)=O` [GLFGVLAKVAAHVVPAIAE], the MIC in [5], in assay [6], in [7] and in [8] was at least 64 µM in each case.

For the compound `CC[C@H](C)[C@H](NC(=O)[C@H](C)NC(=O)[C@@H]1CCCN1C(=O)[C@@H](NC(=O)[C@@H](NC(=O)[C@H](CCCCN)NC(=O)[C@H](C)NC(=O)[C@H](C)NC(=O)[C@@H](NC(=O)[C@H](CCCCN)NC(=O)[C@H](C)NC(=O)[C@H](CC(C)C)NC(=O)[C@@H](NC(=O)CNC(=O)[C@H](Cc1ccccc1)NC(=O)[C@H](CC(C)C)NC(=O)CN)C(C)C)C(C)C)C(C)C)C(C)C)C(=O)N[C@@H](C)C(=O)N[C@@H](CCCCN)C(=O)N[C@@H](Cc1cnc[nH]1)C(=O)N[C@@H](Cc1ccccc1)C(N)=O` [GLFGVLAKVAAKVVPAIAKHF], the MIC in [5] was determined as 2 µM (≈ 4.27 µg/mL); in [6], 16 µM (≈ 34.2 µg/mL); in assay [7], 8 µM (≈ 17.1 µg/mL); in [8], 4 µM (≈ 8.54 µg/mL).

Regarding `CC[C@H](C)[C@H](N)C(=O)N[C@@H](CO)C(=O)N[C@@H](CO)C(=O)N1CCC[C@H]1C(=O)N[C@@H](CC(C)C)C(=O)N[C@@H](Cc1ccccc1)C(=O)N[C@@H](CCCCN)C(=O)N[C@H](C(=O)N[C@@H](CC(C)C)C(=O)N[C@@H](CC(C)C)C(=O)N[C@@H](CO)C(=O)N[C@@H](C)C(=O)N[C@H](C(=O)NCC(=O)N[C@@H](CO)C(=O)N[C@@H](C)C(=O)N[C@@H](CC(C)C)C(=O)N[C@@H](CO)C(=O)N[C@@H](CO)C(=O)N[C@@H](CO)C(=O)NCC(=O)NCC(=O)N[C@@H](CCC(N)=O)C(=O)N[C@@H](CCC(=O)O)C(=O)O)C(C)C)[C@@H](C)O` [ISSPLFKTLLSAVGSALSSSGGQE], the minimal inhibitory concentration (MIC) in [9] is at least 100 µM; in assay [10], at least 100 µM; with Bacillus megaterium Bm11, at least 100 µM; in assay [11] it was at least 100 µM; in assay [12], above 100 µM; against Escherichia coli D21 it was at least 100 µM. In addition, the minimum inhibitory concentration (MIC) in assay [13] is at least 100 µM.

In the case of `CC(C)C[C@H](NC(=O)[C@H](CCCCN)NC(=O)[C@H](CC(C)C)NC(=O)[C@H](CCCCN)NC(=O)[C@H](CC(C)C)NC(=O)[C@@H]1CCCN1C(=O)[C@H](CCCCN)NC(=O)[C@H](CCCCN)NC(=O)[C@H](CC(C)C)NC(=O)[C@H](CC(C)C)NC(=O)[C@H](CCCCN)NC(=O)[C@H](CCCCN)NC(=O)[C@H](Cc1c[nH]c2ccccc12)NC(=O)[C@@H](N)CCCCN)C(N)=O` [KWKKLLKKPLKLKL], the MIC in [14] stood at 0.2 µM (≈ 0.353 µg/mL); in assay [15] it was 3.1 µM (≈ 5.47 µg/mL); in assay [16], 12.5 µM (≈ 22 µg/mL); in assay [17] it was 3.1 µM (≈ 5.47 µg/mL); in assay [18], 12.5 µM (≈ 22 µg/mL); in [19] it was 3.1 µM (≈ 5.47 µg/mL). The compound further had an MIC in [20] of 3.1 µM (≈ 5.47 µg/mL).

Take `CC(C)C[C@H](NC(=O)[C@H](CCCCN)NC(=O)[C@H](CCCCN)NC(=O)[C@H](CC(C)C)NC(=O)[C@H](CC(C)C)NC(=O)[C@H](CCCCN)NC(=O)[C@H](CCCCN)NC(=O)[C@H](CC(C)C)NC(=O)[C@H](CC(C)C)NC(=O)[C@@H]1CCCN1C(=O)[C@H](CCCCN)NC(=O)[C@H](CC(C)C)NC(=O)[C@H](CCCCN)NC(=O)[C@H](Cc1c[nH]c2ccccc12)NC(=O)[C@@H](N)CCCCN)C(N)=O` [KWKLKPLLKKLLKKL]: the MIC in assay [14] is 0.2 µM (≈ 0.375 µg/mL); in assay [15], 1.6 µM (≈ 3 µg/mL); in assay [16], 12.5 µM (≈ 23.5 µg/mL); in assay [17], 1.6 µM (≈ 3 µg/mL); in assay [18], 12.5 µM (≈ 23.5 µg/mL); in [19] it was 3.1 µM (≈ 5.82 µg/mL). In [20], this compound displayed an MIC of 3.1 µM (≈ 5.82 µg/mL).

Turning to `CC[C@H](C)[C@H](NC(=O)[C@@H]1CCCN1C(=O)[C@H](CCCN=C(N)N)NC(=O)[C@@H]1CCCN1C(=O)CNC(=O)[C@@H]1CCCN1C(=O)[C@H](CCCN=C(N)N)NC(=O)[C@@H]1CCCN1C(=O)[C@H](Cc1ccccc1)NC(=O)[C@@H]1CCCN1C(=O)[C@H](CC(C)C)NC(=O)[C@@H]1CCCN1C(=O)[C@H](CCCN=C(N)N)NC(=O)[C@@H]1CCCN1C(=O)[C@@H](NC(=O)[C@@H]1CCCN1C(=O)[C@H](CCCN=C(N)N)NC(=O)[C@@H]1CCCN1C(=O)CNC(=O)[C@@H]1CCCN1C(=O)[C@H](CCCN=C(N)N)NC(=O)[C@@H]1CCCN1C(=O)[C@H](Cc1ccccc1)NC(=O)[C@@H]1CCCN1C(=O)[C@H](CC(C)C)NC(=O)[C@@H]1CCCN1C(=O)[C@H](CCCN=C(N)N)NC(=O)[C@@H]1CCCN1)[C@@H](C)CC)C(=O)O` [PRPLPFPRPGPRPIPRPLPFPRPGPRPI], the MIC in [21] was above 128 µM; in [22], above 128 µM; in assay [23] it was above 128 µM; in assay [24], at least 128 µM; in the assay on Escherichia coli ML-35 it was at least 128 µM.

For `CC[C@H](C)[C@H](NC(=O)[C@H](CCCN=C(N)N)NC(=O)[C@@H](N)CCCN=C(N)N)C(=O)N[C@@H](CCCN=C(N)N)C(=O)N1CCC[C@H]1C(=O)N[C@@H](CCCN=C(N)N)C(=O)N1CCC[C@H]1C(=O)N1CCC[C@H]1C(=O)N[C@@H](CCCN=C(N)N)C(=O)N[C@@H](CC(C)C)C(=O)N1CCC[C@H]1C(=O)N[C@@H](CCCN=C(N)N)C(=O)N1CCC[C@H]1C(=O)O` [RRIRPRPPRLPRP], the MIC is above 128 µM in [21]; above 128 µM in assay [22]; above 128 µM in assay [23]; at least 128 µM in [24]; at least 90.5 µM against Escherichia coli HB101; at least 128 µM against Escherichia coli ML-35.

In the case of `CC[C@H](C)[C@H](NC(=O)[C@H](CCCN=C(N)N)NC(=O)[C@@H]1CCCN1C(=O)[C@@H]1CCCN1C(=O)[C@H](CC(C)C)NC(=O)[C@H](CCCN=C(N)N)NC(=O)[C@@H]1CCCN1C(=O)[C@@H]1CCCN1C(=O)[C@H](Cc1ccccc1)NC(=O)[C@H](Cc1ccccc1)NC(=O)[C@@H]1CCCN1C(=O)[C@@H]1CCCN1C(=O)[C@@H]1CCCN1C(=O)[C@H](CCCN=C(N)N)NC(=O)[C@@H]1CCCN1C(=O)[C@H](CCCN=C(N)N)NC(=O)[C@@H]1CCCN1C(=O)[C@H](CC(C)C)NC(=O)[C@H](Cc1ccc(O)cc1)NC(=O)[C@@H]1CCCN1C(=O)[C@@H]1CCCN1C(=O)[C@H](CCCN=C(N)N)NC(=O)[C@@H]1CCCN1C(=O)[C@H](CCCN=C(N)N)NC(=O)[C@H](CCCN=C(N)N)NC(=O)[C@@H](N)CCCN=C(N)N)C(=O)O` [RRRPRPPYLPRPRPPPFFPPRLPPRI], the minimum inhibitory concentration (MIC) was 1.13 µM (≈ 3.65 µg/mL) in assay [22]; 0.4 µM (≈ 1.29 µg/mL) in assay [25]; 1.13 µM (≈ 3.65 µg/mL) against Escherichia coli HB101; 4.42 µM (≈ 14.3 µg/mL) in [12]; at least 50 µM in assay [26].
